Values quoted from earlier work as cited in paper PMC4914392 (Bioorganic & medicinal chemistry, 2016).

Details: ref [17]

For `Nc1nccc2c1nnn2[C@@H]1O[C@H](CO)[C@@H](O)[C@H]1O` [Compound 4, 8-aza-3-deazaadenosine], the “Fluorescence emission λmax (H2O)” value is listed as 430 nm and the “Stokes shift (H2O)” value is listed as 140 nm.
